Measured values reported in ChEMBL document CHEMBL6134844, “Development of Next-Generation Antimalarial Acridones with Radical Cure Potential” (J Med Chem, 2025).

Legend:
Plasmodium falciparum [1] = assay: Antiplasmodial activity against asexual blood-stage (ABS) CQ-sensitive Plasmodium falciparum D6 infected in human erythrocytes assessed as reduction in fluorescence measured after 72 hrs by Malaria SYBR Green I-based Fluorescence (MSF) assay; assay type: functional, organism-based; settings: D6, Erythrocyte
[2] = mouse, microsomes, 1 h
[3] = Toxicity in CF1 mouse infected with asexual blood-stage (ABS) Plasmodium yoelii MRA-428 assessed as hyperactivity at 0.3 to 30 mg/kg, po treated 24 hrs post infection measured after 4 days; assay type: organism-based; settings: in vivo, 96 h, dose 0.3-30 mg/kg, time 4 day
Plasmodium falciparum [4] = assay: Antiplasmodial activity against asexual blood-stage (ABS) MDR Plasmodium falciparum Dd2 infected in human erythrocytes assessed as reduction in fluorescence measured after 72 hrs by Malaria SYBR Green I-based Fluorescence (MSF) assay; assay type: functional, organism-based; settings: Dd2, Erythrocyte
Plasmodium cynomolgi [5] = assay: (§1) Antiplasmodial activity against hypnozoite Plasmodium cynomolgi B strain infected in Macaca mulatta hepatocytes incubated with sporozoite containing salivary gland homogenate obtained from dissected Anopheles dirus mosquitoes (infected with Plasmodium cynomolgi B strain) treatment started on day 4 post infection and continued daily for 4 days into fresh changed media until day 8 assessed as Liver stage (LS) activity by measuring radical cure mode by immunofluorescent staining analysis; assay type: functional, organism-based; settings: Hepatocyte
Hepatocyte = assay: Cytotoxicity against Macaca mulatta hepatocytes assessed as cell viability measured after 48 hrs by MTT assay; assay type: toxicity, cell-based; settings: rhesus monkey, 48 h
Plasmodium cynomolgi [6] = assay: as §1, with “prophylactic” for “radical cure”; assay type: functional, organism-based; settings: Hepatocyte
HepG2 = assay: Cytotoxicity against human HepG2 cells assessed as cell viability measured after 48 hrs by MTT assay; assay type: functional, cell-based; settings: HepG2, 48 h
[7] = as §1, with “Selectivity index, ratio of CC50 for Macaca mulatta hepatocytes to IC50 for antiplasmodial” for “Antiplasmodial”, “schizont” for “hypnozoite”, “prophylactic” for “radical cure”; assay type: toxicity, cell-based; settings: rhesus monkey, read-out: Selectivity Index
[8] = Toxicity in CF1 mouse infected with asexual blood-stage (ABS) Plasmodium yoelii MRA-428 assessed as weight loss at 0.3 to 30 mg/kg, po treated 24 hrs post infection measured after 4 days; assay type: organism-based; settings: in vivo, 96 h, dose 0.3-30 mg/kg, time 4 day
Plasmodium falciparum [9] = assay: Antiplasmodial activity against asexual blood-stage (ABS) ATV-resistant clinical isolate Plasmodium falciparum Tm90-C2B infected in human erythrocytes assessed as reduction in fluorescence measured after 72 hrs by Malaria SYBR Green I-based Fluorescence (MSF) assay; assay type: functional, organism-based; settings: Erythrocyte
[10] = Toxicity in CF1 mouse infected with asexual blood-stage (ABS) Plasmodium yoelii MRA-428 assessed as lethargy at 0.3 to 30 mg/kg, po treated 24 hrs post infection measured after 4 days; assay type: organism-based; settings: in vivo, 96 h, dose 0.3-30 mg/kg, time 4 day
[11] = Toxicity in CF1 mouse infected with asexual blood-stage (ABS) Plasmodium yoelii MRA-428 assessed as ruffled hair at 0.3 to 30 mg/kg, po treated 24 hrs post infection measured after 4 days; assay type: organism-based; settings: in vivo, 96 h, dose 0.3-30 mg/kg, time 4 day
[12] = Toxicity in CF1 mouse infected with asexual blood-stage (ABS) Plasmodium yoelii MRA-428 assessed as hunching at 0.3 to 30 mg/kg, po treated 24 hrs post infection measured after 4 days; assay type: organism-based; settings: in vivo, 96 h, dose 0.3-30 mg/kg, time 4 day
Plasmodium cynomolgi [13] = assay: as §1, with “schizont” for “hypnozoite”, “prophylactic” for “radical cure”; assay type: functional, organism-based; settings: Hepatocyte
Plasmodium cynomolgi [14] = assay: as §1, with “schizont” for “hypnozoite”; assay type: functional, organism-based; settings: Hepatocyte
[15] = as §1, with “Selectivity index, ratio of CC50 for Macaca mulatta hepatocytes to IC50 for antiplasmodial” for “Antiplasmodial”, “prophylactic” for “radical cure”; assay type: toxicity, cell-based; settings: rhesus monkey, read-out: Selectivity Index
[16] = as §1, with “Selectivity index, ratio of CC50 for Macaca mulatta hepatocytes to IC50 for antiplasmodial” for “Antiplasmodial”, “schizont” for “hypnozoite”; assay type: toxicity, cell-based; settings: rhesus monkey, read-out: Selectivity Index
[17] = as §1, with “Selectivity index, ratio of CC50 for Macaca mulatta hepatocytes to IC50 for antiplasmodial” for “Antiplasmodial”; assay type: toxicity, cell-based; settings: rhesus monkey, read-out: Selectivity Index
[18] = human, microsomes, 1 h

Compound	IC50 (Plasmodium falciparum [1])	CLH [2]	Activity [3]	IC50 (Plasmodium falciparum [4])	IC50 (Plasmodium cynomolgi [5])	CC50 (Hepatocyte)	IC50 (Plasmodium cynomolgi [6])	IC50 (HepG2)	selectivity ratio at 96 h [7]	Activity [8]	IC50 (Plasmodium falciparum [9])	Activity [10]	Activity [11]	Activity [12]	IC50 (Plasmodium cynomolgi [13])	IC50 (Plasmodium cynomolgi [14])	selectivity ratio at 96 h [15]	selectivity ratio at 96 h [16]	selectivity ratio at 96 h [17]	t1/2 [18]
CCCCN(CCCC)CCCOc1ccc2c(=O)c3c([nH]c2c1)CCCC3	7.2 nM	> 500 µL/min/mg	Non-toxic	0.0394 µM	> 20 µM	> 20 µM	> 20 µM	> 200 µM	> 4.06	Non-toxic	0.0597 µM	Non-toxic	Non-toxic	Non-toxic	4.92 µM	> 20 µM				
CCCN(CCC)CCOc1ccc2c(=O)c3c([nH]c2c1)CCCC3	24.5 nM	492 µL/min/mg	Non-toxic	0.0643 µM	> 20 µM	> 20 µM	> 20 µM	> 200 µM	> 2.03	Non-toxic	0.0461 µM	Non-toxic	Non-toxic	Non-toxic	9.83 µM	> 20 µM				
O=c1c2c([nH]c3cc(Oc4ccccc4OC(F)(F)F)ccc13)CCCC2	0.023 nM	72.1 µL/min/mg	Non-toxic	0.000171 µM	> 20 µM	> 20 µM	7.72 µM	> 200 µM	> 31.2	Non-toxic	0.000275 µM	Non-toxic	Non-toxic	Non-toxic	0.64 µM	> 20 µM	> 2.59			
O=c1c2c([nH]c3cc(OCc4ccc(OC(F)(F)F)cc4)ccc13)CCCC2	6.02 nM	31.9 µL/min/mg	Non-toxic	0.0275 µM	> 20 µM	> 20 µM	> 20 µM	> 200 µM	> 5.52	Non-toxic	0.0435 µM	Non-toxic	Non-toxic	Non-toxic	3.62 µM	> 20 µM				
O=c1c2c([nH]c3cccc(Oc4ccc(OC(F)(F)F)cc4)c13)CCCC2	> 2500 nM	48 µL/min/mg	Non-toxic	> 2.5 µM	3.83 µM	6 µM	7.62 µM	> 200 µM	1.79	Non-toxic	> 2.5 µM	Non-toxic	Non-toxic	Non-toxic	3.34 µM	2.92 µM	0.787	2.05	1.57	
CCN(CC)CCOc1ccc2c(=O)c3c([nH]c2c1)CCCC3	> 2500 nM	> 500 µL/min/mg	Non-toxic	> 2.5 µM	> 20 µM	> 20 µM	> 20 µM		> 1.43	Non-toxic	> 2.5 µM	Non-toxic	Non-toxic	Non-toxic	14 µM	> 20 µM				> 1 h
O=c1c2c([nH]c3c(Oc4ccc(OC(F)(F)F)cc4)cccc13)CCCC2	57.5 nM	6.85 µL/min/mg	Non-toxic	0.0838 µM	> 20 µM	> 20 µM	13.1 µM	> 200 µM	> 2.62	Non-toxic	0.219 µM	Non-toxic	Non-toxic	Non-toxic	7.63 µM	17.9 µM	> 1.53	> 1.12		> 1 h
O=c1c2c([nH]c3cc(Nc4ccc(OC(F)(F)F)cc4)ccc13)CCCC2	0.232 nM	56 µL/min/mg	Non-toxic	0.00185 µM	1.29 µM	1.81 µM	1.09 µM	> 200 µM	8.62	Non-toxic	0.00279 µM	Non-toxic	Non-toxic	Non-toxic	0.21 µM	1.4 µM	1.66	1.29	1.4	
O=c1c2c([nH]c3ccc(F)c(Oc4ccc(OC(F)(F)F)cc4)c13)CCCC2	1360 nM	31.1 µL/min/mg	Non-toxic	> 2.5 µM	14 µM	> 20 µM	7.32 µM		> 2.7	Non-toxic	> 2.5 µM	Non-toxic	Non-toxic	Non-toxic	7.4 µM	> 20 µM	> 2.73		> 1.43	
CCN(CC)CCCOc1ccc2c(=O)c3c([nH]c2c1)CCCC3	> 2500 nM	> 500 µL/min/mg	Non-toxic	> 2.5 µM	> 20 µM	> 20 µM	> 20 µM		> 1.82	Non-toxic	> 2.5 µM	Non-toxic	Non-toxic	Non-toxic	11 µM	> 20 µM				> 1 h
O=c1c2c([nH]c3cc(Oc4cccc(OC(F)(F)F)c4)ccc13)CCCC2	0.116 nM	29.7 µL/min/mg	Non-toxic	0.000537 µM	7.99 µM	10.1 µM	4.64 µM	> 200 µM	16.8	Non-toxic	0.00438 µM	Non-toxic	Non-toxic	Non-toxic	0.6 µM	6.87 µM	2.18	1.47	1.25	> 1 h
CCCN(CCC)CCCOc1ccc2c(=O)c3c([nH]c2c1)CCCC3	108 nM	> 500 µL/min/mg	Non-toxic	0.126 µM	> 20 µM	> 20 µM	> 20 µM	> 200 µM	> 3.75	Non-toxic	0.162 µM	Non-toxic	Non-toxic	Non-toxic	5.33 µM	14 µM		> 1.43		
O=c1c2c([nH]c3cc(OC(F)(F)F)ccc13)CCCC2	52.4 nM	21.3 µL/min/mg	Non-toxic	0.0847 µM	> 20 µM	> 20 µM	> 20 µM	> 200 µM	> 5.05	Non-toxic	0.0586 µM	Non-toxic	Non-toxic	Non-toxic	3.96 µM	> 20 µM				
